Experimental data taken from patent publication US10336739B2, “4-hydroxy-3-(heteroaryl)pyridine-2-one APJ agonists” (BRISTOL-MYERS SQUIBB COMPANY, priority 2015, dated 2019).

molecular target: human APJ receptor (Homo sapiens (Human), UniProt P35414); assay: Intracellular cAMP accumulation assay (APJ hcAMP, HTRF); assay type: cell-based; details: HEK293 cells stably expressing human APJ receptor; inhibition of forskolin-mediated cAMP production; read-out: hAPJ cAMP EC50 (nM) Potency range
Outline: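 HEK293 cells stably expressing human APJ, 5,000 per well, exposed to compound with […] IBMX and 2 μM forskolin for 30 minutes at room temperature. cAMP measured by HTRF after lysis and 60 min detection incubation. EC50 from sigmoidal variable-slope fits of inhibition of forskolin-induced cAMP, quantified against a cAMP standard curve.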

Sequence of human APJ receptor (P35414 whole entry): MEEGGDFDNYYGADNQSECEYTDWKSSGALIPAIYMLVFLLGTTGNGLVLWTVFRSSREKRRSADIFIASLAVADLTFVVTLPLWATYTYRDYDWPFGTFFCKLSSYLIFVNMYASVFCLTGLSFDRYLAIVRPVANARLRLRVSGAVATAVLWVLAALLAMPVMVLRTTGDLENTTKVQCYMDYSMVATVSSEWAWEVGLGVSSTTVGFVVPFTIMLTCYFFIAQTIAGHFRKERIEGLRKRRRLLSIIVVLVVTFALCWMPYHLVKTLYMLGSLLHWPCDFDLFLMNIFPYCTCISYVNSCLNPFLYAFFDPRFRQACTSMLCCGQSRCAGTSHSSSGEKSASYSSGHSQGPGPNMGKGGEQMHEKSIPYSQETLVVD

Structure (SMILES) | EC50 [nM]
C#CCNC(=O)Cc1nnc(-c2c(O)nc(CCCC)c(-c3c(OC)cccc3OC)c2O)o1 [Example 262, 2-{5-[6-butyl-5-(2,6-dimethoxyphenyl)-2,4-dihydroxy-pyridin-3-yl]-1,3,4-oxadiazol-2-yl}-N-(prop-2-yn-1-yl)acetamide] | 0.01 to 10
CCCCc1nc(O)c(-c2nnc(CC(=O)Nc3cc(C)n[nH]3)o2)c(O)c1-c1c(OC)cccc1OC [Example 263, 2-{5-[6-butyl-5-(2,6-dimethoxyphenyl)-2,4-dihydroxy-pyridin-3-yl]-1,3,4-oxadiazol-2-yl}-N-(3-methyl-1H-pyrazol-5-yl)acetamide] | 0.01 to 10
CCCCc1nc(O)c(-c2nnc(CC(=O)NCc3ccccc3C)o2)c(O)c1-c1c(OC)cccc1OC [Example 264, 2-{5-[6-butyl-5-(2,6-dimethoxyphenyl)-2,4-dihydroxy-pyridin-3-yl]-1,3,4-oxadiazol-2-yl}-N-[(2-methylphenyl)methyl]acetamide] | 0.01 to 10
CCCCc1nc(O)c(-c2nnc(CC(=O)NCc3ccccc3Cl)o2)c(O)c1-c1c(OC)cccc1OC [Example 265, 2-{5-[6-butyl-5-(2,6-dimethoxyphenyl)-2,4-dihydroxy-pyridin-3-yl]-1,3,4-oxadiazol-2-yl}-N-[(2-chlorophenyl)methyl]acetamide] | 0.01 to 10
CCCCc1nc(O)c(-c2nnc(CC(=O)NCc3ccc(Cl)cc3)o2)c(O)c1-c1c(OC)cccc1OC [Example 266, 2-{5-[6-butyl-5-(2,6-dimethoxyphenyl)-2,4-dihydroxy-pyridin-3-yl]-1,3,4-oxadiazol-2-yl}-N-[(4-chlorophenyl)methyl]acetamide] | 0.01 to 10
CCCCc1nc(O)c(-c2nnc(CC(=O)NCCc3ccc(Cl)cc3)o2)c(O)c1-c1c(OC)cccc1OC [Example 267, 2-{5-[6-butyl-5-(2,6-dimethoxyphenyl)-2,4-dihydroxy-pyridin-3-yl]-1,3,4-oxadiazol-2-yl}-N-[2-(4-chlorophenyl)ethyl]acetamide] | 0.01 to 10
CCCCc1nc(O)c(-c2nnc(CC(=O)NCc3ccncc3)o2)c(O)c1-c1c(OC)cccc1OC [Example 268, 2-{5-[6-butyl-5-(2,6-dimethoxyphenyl)-2,4-dihydroxy-pyridin-3-yl]-1,3,4-oxadiazol-2-yl}-N-[(pyridin-4-yl)methyl] acetamide] | 0.01 to 10
CCCCc1nc(O)c(-c2nnc(CC(=O)NCc3ccc(OC)cc3)o2)c(O)c1-c1c(OC)cccc1OC [Example 269, 2-{5-[6-butyl-5-(2,6-dimethoxyphenyl)-2,4-dihydroxy-pyridin-3-yl]-1,3,4-oxadiazol-2-yl}-N-[(4-methoxyphenyl)methyl]acetamide] | 0.01 to 10
CCCCc1nc(O)c(-c2nnc(CC(=O)NCc3ccc(N(C)C)cc3)o2)c(O)c1-c1c(OC)cccc1OC [Example 270, 2-{5-[6-butyl-5-(2,6-dimethoxyphenyl)-2,4-dihydroxy-pyridin-3-yl]-1,3,4-oxadiazol-2-yl}-N-{[4-(dimethylamino)phenyl]methyl} acetamide] | 0.01 to 10
CCCCc1nc(O)c(-c2nnc(CC(=O)NCc3nnc(C)o3)o2)c(O)c1-c1c(OC)cccc1OC [Example 271, 2-{5-[6-butyl-5-(2,6-dimethoxyphenyl)-2,4-dihydroxypyridin-3-yl]-1,3,4-oxadiazol-2-yl}-N-[(5-methyl-1,3,4-oxadiazol-2-yl)methyl]acetamide] | 0.01 to 10
CCCCc1nc(O)c(-c2nnc(CC(=O)NCc3cc(C(C)C)no3)o2)c(O)c1-c1c(OC)cccc1OC [Example 272, 2-{5-[6-butyl-5-(2,6-dimethoxyphenyl)-2,4-dihydroxy-pyridin-3-yl]-1,3,4-oxadiazol-2-yl}-N-{[3-(propan-2-yl)-1,2-oxazol-5-yl]methyl} acetamide] | 0.01 to 10
CCCCc1nc(O)c(-c2nnc(CC(=O)NCc3ccc(S(N)(=O)=O)cc3)o2)c(O)c1-c1c(OC)cccc1OC [Example 273, 2-{5-[6-butyl-5-(2,6-dimethoxyphenyl)-2,4-dihydroxy-pyridin-3-yl]-1,3,4-oxadiazol-2-yl}-N-[(4-sulfamoylphenyl)methyl]acetamide] | 10 to 100
CCOCc1nc(O)c(-c2nnc(Cc3ccc(Cl)cn3)o2)c(O)c1-c1c(O)cccc1OC [Example 274, 3-{5-[(5-chloropyridin-2-yl)methyl]-1,3,4-oxadiazol-2-yl}-6-(ethoxymethyl)-5-(2-hydroxy-6-methoxyphenyl) pyridine-2,4-diol] | 0.01 to 10
CCOCc1nc(O)c(-c2nnc(Cc3ccc(Cl)cn3)o2)c(O)c1-c1c(O)cccc1OC [Example 275, 3-{5-[(5-chloropyridin-2-yl)methyl]-1,3,4-oxadiazol-2-yl}-6-(ethoxymethyl)-5-(2-hydroxy-6-methoxyphenyl) pyridine-2,4-diol] | 10 to 100
CCOCc1nc(O)c(-c2nnc(Cc3ccc(Cl)cn3)o2)c(O)c1-c1c(O)cccc1O [Example 276, 3-{5-[(5-chloropyridin-2-yl)methyl]-1,3,4-oxadiazol-2-yl}-5-(2,6-dihydroxyphenyl)-6-(ethoxymethyl) pyridine-2,4-diol] | 10 to 100
